Measurements from patent US11174245B2, “Benzimidazole compounds and derivatives as EGFR inhibitors” (Boehringer Ingelheim International GmbH, priority 2018, dated 2021).

Each molecule was assayed against EGFR del19 T790M C797S protein in Ba/F3 cells (Homo sapiens, UniProt P00533, C797S/DEL746-750/T790M) (assay: pEGFR assay (AlphaScreen Surefire, EGFR Tyr1068 phosphorylation)).
Format: cell-based
Description: Transduced cells were selected using puromycin. Following selection, IL-3 was withdrawn and IL-3 independent cells cultured. p-EGFR Tyr1068 was determined using the AlphaScreen Surefire pEGF Receptor (Tyr1068) Assay (PerkinElmer, TGRERS). […] Subsequently, 60.000 cells/well in 60 μL were added. Cells were incubated with compound for 4 h at 37° C. […] The mixture was incubated at room temperature with shaking (700 rpm) for 20 min. After centrifugation, 4 μL of the lysate were transferred to Proxiplates. […] Plates were shaken for 1 min (1400 rpm) and incubated for 2 h at room temperature in the dark.
The results of the assay are provided as IC50 values (see table 12).

EGFR del19 T790M C797S protein in Ba/F3 cells, sequence (P00533 with tags, fused parts or gaps C797S/DEL746-750/T790M limits assumed): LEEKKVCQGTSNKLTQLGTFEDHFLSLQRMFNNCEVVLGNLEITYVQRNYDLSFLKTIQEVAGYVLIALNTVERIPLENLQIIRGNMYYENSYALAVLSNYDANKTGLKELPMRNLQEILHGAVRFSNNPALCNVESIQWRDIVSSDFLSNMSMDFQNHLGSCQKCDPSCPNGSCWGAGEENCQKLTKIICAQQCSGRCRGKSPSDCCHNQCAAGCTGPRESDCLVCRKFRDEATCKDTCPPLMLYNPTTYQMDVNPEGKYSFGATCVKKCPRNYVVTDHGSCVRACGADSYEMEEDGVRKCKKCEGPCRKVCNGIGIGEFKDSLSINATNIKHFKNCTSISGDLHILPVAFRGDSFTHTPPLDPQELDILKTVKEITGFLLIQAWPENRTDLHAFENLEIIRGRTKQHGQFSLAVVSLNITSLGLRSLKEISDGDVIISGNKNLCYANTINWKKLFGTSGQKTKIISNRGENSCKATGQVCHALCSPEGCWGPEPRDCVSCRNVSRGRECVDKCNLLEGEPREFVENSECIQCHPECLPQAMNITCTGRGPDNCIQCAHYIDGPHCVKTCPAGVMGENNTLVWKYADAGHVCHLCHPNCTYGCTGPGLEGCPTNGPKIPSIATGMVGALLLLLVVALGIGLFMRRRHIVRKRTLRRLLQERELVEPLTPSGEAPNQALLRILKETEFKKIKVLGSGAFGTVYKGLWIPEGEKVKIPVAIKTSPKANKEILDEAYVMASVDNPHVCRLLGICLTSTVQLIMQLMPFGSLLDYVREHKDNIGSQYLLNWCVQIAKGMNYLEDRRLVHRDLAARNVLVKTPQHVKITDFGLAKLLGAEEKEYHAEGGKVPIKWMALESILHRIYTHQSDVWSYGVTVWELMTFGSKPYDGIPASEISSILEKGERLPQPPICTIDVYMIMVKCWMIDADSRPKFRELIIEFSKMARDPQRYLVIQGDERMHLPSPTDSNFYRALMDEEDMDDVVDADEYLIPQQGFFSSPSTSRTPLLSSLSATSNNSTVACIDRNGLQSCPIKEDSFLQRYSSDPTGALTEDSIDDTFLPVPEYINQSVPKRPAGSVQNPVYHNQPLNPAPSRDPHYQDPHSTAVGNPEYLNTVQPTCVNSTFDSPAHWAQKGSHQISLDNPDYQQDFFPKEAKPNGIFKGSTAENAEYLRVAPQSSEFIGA

IC50 | SMILES
1 nM | Cn1cc(-c2cc(C(=O)/N=c3\[nH]c4ccccc4n3[C@H]3CC[C@@H](O)CC3)cc(F)n2)cn1 [I-133]
7 nM | Cc1ccccc1-c1cc(C(=O)/N=c2\[nH]c3ccccc3n2[C@H]2CC[C@@H](O)CC2)ccn1 [I-166]
7 nM | O=C(/N=c1\[nH]c2ccccc2n1[C@H]1CC[C@@H](O)CC1)c1ccnc(-n2ccnc2)c1 [I-226]
5 nM | COc1ccccc1-c1cc(C(=O)/N=c2\[nH]c3ccccc3n2[C@@H]2CCC[C@H](O)C2)ccn1 [I-129]
23 nM | COCCN1CCC(c2ccc3[nH]/c(=N\C(=O)c4cc(C)nc(-c5cnn(C)c5)c4)n(C4CCCCC4)c3c2)CC1 [I-229]
12 nM | O=C(/N=c1\[nH]c2ccccc2n1[C@H]1CC[C@@H](O)CC1)c1ccnc(-c2ccc(F)cc2)c1 [I-177]
6 nM | CC(C)(O)Cn1/c(=N/C(=O)c2ccnc(-c3cccc4ccoc34)c2)[nH]c2ccccc21 [I-98]
2 nM | Cc1cc(C(=O)/N=c2\[nH]c3ccc(N4CCN(C)CC4)cc3n2[C@H]2CC[C@@H](O)CC2)cc(-c2cnn(C)c2)n1 [I-227]
4 nM | COc1ccccc1-c1cc(C(=O)/N=c2\[nH]c3ccccc3n2[C@@H]2CC[C@@H](O)[C@@H](O)C2)ccn1 [I-234]
4 nM | COc1cnccc1-c1cc(C(=O)/N=c2\[nH]c3ccccc3n2[C@H]2CC[C@@H](O)CC2)ccn1 [I-147]
9 nM | CNc1ccc2c(c1)[nH]/c(=N\C(=O)c1ccnc(-c3cnn(C)c3)c1)n2CC(C)(C)O [I-172]
63 nM | Cc1cc2c(cc1N(C)C)[nH]/c(=N\C(=O)c1ccnc(-c3cnn(C)c3)c1)n2CC(C)(C)O [I-231]
6 nM | O=C(/N=c1\[nH]c2ccccc2n1[C@H]1CC[C@@H](O)CC1)c1ccnc(-c2ccccc2Cl)c1 [I-160]

Further lines, the molecule ahead of its results:

SMILES | IC50
Cc1c(-c2cc(C(=O)/N=c3\[nH]c4ccccc4n3C3CCCCC3)ccn2)cnn1C [I-044] | 2 nM
COCCN1CCC(c2ccc3c(c2)[nH]/c(=N\C(=O)c2ccnc(-c4cnn(C)c4)c2)n3CC(C)(C)O)CC1 [I-047] | 3 nM
Cc1ccncc1-c1cc(C(=O)/N=c2\[nH]c3ccccc3n2CC(C)(C)O)ccn1 [I-016] | 58 nM
Cc1cc2c(cc1N1CCCCC1)[nH]/c(=N\C(=O)c1ccnc(-c3cnn(C)c3)c1)n2CC(C)(C)O [I-70] | 94 nM
O=C(/N=c1\[nH]c2ccccc2n1[C@H]1CC[C@@H](O)CC1)c1ccnc(-c2cccc3ccnn23)c1 [I-89] | 8 nM
CC(C)(O)Cn1/c(=N/C(=O)c2ccnc(-c3cccnc3)c2)[nH]c2cc(Cl)ccc21 [I-066] | 23 nM
CCc1ccc2c(c1)[nH]/c(=N\C(=O)c1ccnc(-c3cnn(C)c3)c1)n2CC(C)(C)O [I-061] | 7 nM
Cn1cc(-c2cc(C(=O)/N=c3\[nH]c4cc(N5CCC6(CCOCC6)CC5)ccc4n3CC(C)(C)O)ccn2)cn1 [I-74] | 71 nM
Cn1cc(-c2cc(C(=O)/N=c3\[nH]c4cc(C5CCOC5)ccc4n3CC(C)(C)O)ccn2)cn1 (stereo not drawn) [I-86] | 5 nM
C[C@@H]1CN(c2ccc3c(c2)[nH]/c(=N\C(=O)c2ccnc(-c4cnn(C)c4)c2)n3CC(C)(C)O)C[C@H](C)N1C [I-73] | 81 nM
CC(C)(O)Cn1/c(=N/C(=O)c2ccnc(-c3cccc4ccnn34)c2)[nH]c2ccccc21 [I-90] | 12 nM
COc1ccccc1-c1cc(C(=O)/N=c2\[nH]c3cc(CN4CCCCC4)ccc3n2CC(C)(C)O)ccn1 [I-059] | 3 nM
Cn1cc(-c2cc(C(=O)/N=c3\[nH]c4cc(NC[C@@H]5CCCO5)ccc4n3CC(C)(C)O)ccn2)cn1 [I-81] | 9 nM
Cn1cnc2c(-c3cc(C(=O)/N=c4\[nH]c5ccccc5n4CC(C)(C)O)ccn3)cccc21 [I-95] | 74 nM
CC(C)c1ccc2c(c1)[nH]/c(=N\C(=O)c1ccnc(-c3cnn(C)c3)c1)n2CC(C)(C)O [I-062] | 9 nM
CC(C)(O)Cn1/c(=N/C(=O)c2ccnc(-c3cccnc3)c2)[nH]c2cc(N3CCCCC3)ccc21 [I-77] | 76 nM
COCCN1CCC(c2ccc3c(c2)[nH]/c(=N\C(=O)c2ccnc(-c4cnn(C)c4C)c2)n3CC(C)(C)O)CC1 [I-045] | 2 nM
